We go through 2 compounds from article PMC9841533, “Microtubule-Stabilizing 1,2,4-Triazolo[1,5-a]pyrimidines as Candidate Therapeutics for Neurodegenerative Disease: Matched Molecular Pair Analyses and Computational Studies Reveal New Structure–Activity Insights” (Journal of Medicinal Chemistry, 2022).

Molecules are shown by their SMILES. Read-outs that look alike come from different tables or passages of the source.

Data set [1] has as its system acetylated α-tubulin (AcTub) levels in QBI293 cells. The data set is described as follows: QBI293 cell assay of MT stabilization: acetylated α-tubulin ELISA. Type of data set: cell-based. The method in brief: (§1)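 AcTub and α-Tub were quantified by ELISA in whole-cell extracts normalized by BCA protein and expressed relative to vehicle. AcTub changes were also scaled to a 100 nM reference stabilizer control.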

Data set [2] in a line: Plasma pharmacokinetics in CD-1 mice. Type of data set: in vivo, mouse. To be noted: male, mouse. The protocol: Studies to determine the pharmacokinetic properties of compounds 53 and 60 were conducted at Touchstone Biosciences (Plymouth Meeting, PA). For the determination of plasma pharmacokinetics, three male CD-1 mice (2–3 months of age) were injected i.v. (tail vein) with test compound at a dose of 5 mg/kg in a solution of 10% DMSO, 40% polyethylene glycol, and 50% water, and another three male CD-1 mice received oral gavage dosing of 60 formulated as above at a dose of 20 mg/kg. Blood samples were collected from the saphenous or submandibular veins at multiple time points after dosing and collected in Greiner MiniCollect K2EDTA tubes. Compound levels in plasma were determined by LC-MS/MS, using protocols similar to those previously described.[16],[22]

For data set [3], the system named is de-tyrosinated α-tubulin (GluTub) in brain of WT mice. The data set is described as follows: Brain PD: Glu-tubulin in brain tissue after compound treatment. Type of data set: in vivo, mouse. To be noted: WT CD-1 mice, 1 mg/kg i.p. once daily for two consecutive days. The protocol:
Finally, to evaluate target engagement in the CNS, PD studies were conducted to determine compound-dependent elevations in the stable MT marker, de-tyrosinated α-tubulin (GluTub), in brain homogenates from compound-treated WT mice.
All animal protocols were approved by the University of Pennsylvania Institutional Animal Care and Use Committee (IACUC). […] Compounds were diluted from 20 or 40 mM DMSO stock solutions into 30% Kolliphor EL (Sigma-Aldrich) phosphate-buffered saline, pH 7.4. After 4 h following the second injection, mice were euthanized and cortices and hippocampi were isolated from each brain and placed in 0.2 mL of ice-cold radioimmunoprecipitation assay (RIPA) buffer (50 mM Tris, 150 mM NaCl, 5 mM EDTA, 0.5% sodium deoxycholate, 1% NP-40, 0.1% sodium dodecyl sulfate (SDS), pH 8.0) containing protease inhibitor (PI) cocktail (Sigma-Aldrich), 1 mM phenylmethylsulfonyl fluoride (PMSF) (Sigma-Aldrich), and 3 μM trichostatin A (TSA) (Sigma-Aldrich). The brain samples were homogenized with a handheld battery-operated mixer and subsequently sonicated. After centrifugation at 100,000g for 30 min at 4 °C, supernatant samples were transferred to a new tube and the pellets were resuspended in 0.15 mL of RIPA buffer and again homogenized, sonicated, and centrifuged. The supernatant from the second centrifugation was pooled with that from the first. The combined supernatant samples were assessed for protein concentration using a BCA assay (Thermo Fisher Scientific), and equal protein amounts from each brain sample underwent separation by 10% sodium dodecyl sulfate polyacrylamide gel electrophoresis (SDS-PAGE) followed by transfer onto nitrocellulose membranes essentially as previously described.[11] […] Incubation with infrared dye-conjugated secondary antibodies and subsequent imaging and quantification of the blots on the Odyssey imaging system were as described.[11]

In data set [4] the test system is total α-tubulin (α-Tub) levels in QBI293 cells. The experiment in a line: QBI293 cell assay: total α-tubulin ELISA. It is filed as cell-based. The method, boiled down: as §1
Data set [5] is described as follows: Brain-to-plasma ratio in mice. Type of data set: in vivo. To be noted: mouse, ip, 1 h post-administration, i.p. 1.5 mg/kg, read-out: brain-to-plasma ratio (B/P).
In data set [6] the test system is total tubulin levels in HeLa cells. Also noted: method as in earlier work. To be noted: 16 h incubation, ref 13 (Yang et al.); cited from earlier work.
For data set [7], the system named is acetylated α-tubulin (AcTub) levels in QBI293 cells. Also noted: method as in PMID 26980057, PMID 33411523. Particulars: activity reported in previous studies; cited from earlier work.

Consider `C[C@@H](Nc1c(-c2c(F)cc(C#CCCN(C)C)cc2F)c(Cl)nc2ncnn12)C(C)(C)C` [Compound 60, (R)-5-Chloro-6-(4-(4-(dimethylamino)but-1-yn-1-yl)-2,6-difluorophenyl)-N-(3,3-dimethylbutan-2-yl)-[1,2,4]triazolo[1,5-a]pyrimidin-7-amine], for which the “AcTub (1 uM - normalized)” value in data set [1] (1 uM compound, normalized) amounted to 1.75. For the same compound, in data set [1] (10 uM compound, normalized), the “AcTub (10 uM - normalized)” value stood at 1.28. The fold induction at 1 µM in data set [1] (4 h, 1 uM compound, read-out: AcTub (1uM)) was determined as 9.5; in data set [1] (4 h incubation, 1 μM, read-out: AcTub 1 μM, fold-change compared to vehicle (DMSO)-treated cells), 9.5 ± 0.34; in data set [4] (4 h, 1 uM compound, read-out: AlfaTub (1uM)), 0.94; in data set [4] (4 h incubation, 1 μM, read-out: α-Tub 1 μM, fold-change compared to vehicle (DMSO)-treated cells) it was 0.94 ± 0.01. The fold induction at 10 µM was 6.94 in data set [1] (4 h, 10 uM compound, read-out: AcTub (10 uM)); 6.94 ± 0.22 in data set [1] (4 h incubation, 10 μM, read-out: AcTub 10 μM, fold-change compared to vehicle (DMSO)-treated cells); 0.98 in data set [4] (4 h, 10 uM compound, read-out: AlfaTub (10 uM)); 0.98 ± 0.01 in data set [4] (4 h incubation, 10 μM, read-out: α-Tub 10 μM, fold-change compared to vehicle (DMSO)-treated cells). The “AcTub 1 μM, fold-change compared to positive control compound 5 (100 nM) (in parentheses)” value in data set [1] (4 h incubation, 1 μM) came to 1.75 fold-change. Moreover, the “AcTub 10 μM, fold-change compared to positive control compound 5 (100 nM) (in parentheses)” value in data set [1] (4 h incubation, 10 μM) is on record as 1.28 fold-change. In data set [2] (iv, i.v. 5 mg/kg), this compound yielded a Vd at 24 h of 4.8 L/kg. Besides, the clearance at 24 h in data set [2] (iv, i.v. 5 mg/kg) amounted to 8.2 mL/min/kg. For the same compound, in data set [2] (iv, i.v. 5 mg/kg, read-out: half-life (T1/2)), the half-life was greater than 360 min. For the same compound, the half-life at 24 h in data set [2] (iv, i.v. 5 mg/kg, read-out: half-life (T1/2) (converted)) is 408 min. Also, the bioavailability in data set [2] (oral, 5 mg/kg i.v. and 20 mg/kg p.o., read-out: oral bioavailability (F)) is greater than 50%. Further, the bioavailability at 24 h in data set [2] (po, 5 mg/kg i.v. and 20 mg/kg p.o., read-out: oral bioavailability (F)) stood at 56%. The “brain GluTub (GluTub-to-total α-Tub ratio) relative to vehicle-treated mice” value in data set [3] is listed as “significant elevations in brain GluTub”. Moreover, the Kp at 1 h in data set [5] was roughly 0.5.
With `C[C@H](Nc1c(-c2c(F)cc(F)cc2F)c(Cl)nc2ncnn12)C(F)(F)F` [Compound 2], the total tubulin levels entry in data set [6] is recorded as “reduction in total tubulin levels”. Also, the “Class (cellular phenotype)” value in data set [7] is on record as “I”.
